# Reference: paper PMC5862592, “CDK8/19 inhibition induces premature G1/S transition and ATR-dependent cell death in prostate cancer cells” (Oncotarget, 2018)
# Like-named read-outs stand apart in the source and are kept apart here.
# Experiments:
# Experiment in all cases: biochemical
# Set-up in all cases: KINOMEscan active site-directed competition binding assay (DiscoveRx), 456 kinases, per cent of control at 300 nM
# Conditions in all cases: read-out: Percent of Control (%)
# [1] = target: MAP3K2 (Homo sapiens, UniProt Q9Y2U5)
# Procedure, shortened: (§1)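 Each compound is tested at 300 nmol/L against a panel of 456 kinases. Interaction is quantified by competition for the kinase active site.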
# [2] = target: RIPK2 (Homo sapiens, UniProt O43353)
# Procedure, shortened: as §1
# [3] = target: LIMK2 (Homo sapiens, UniProt P53671)
# Procedure, shortened: as §1
# [4] = target: T1, S6K1 (Homo sapiens, UniProt P23443)
# T1 construct: gene RPS6KB1
# Procedure, shortened: as §1
# [5] = target: MTOR (Homo sapiens, UniProt P42345)
# Procedure, shortened: as §1
# [6] = target: BLK (Homo sapiens, UniProt P51451)
# Procedure, shortened: as §1
# [7] = target: T2, DCAMKL1 (Homo sapiens, UniProt O15075)
# T2 construct: gene DCLK1
# Procedure, shortened: as §1
# [8] = target: CSNK1E (Homo sapiens, UniProt P49674)
# Procedure, shortened: as §1
# [9] = target: T3, RPS6KA5(Kin.Dom.2-C-terminal) (Homo sapiens, UniProt O75582)
# T3 construct: Kin.Dom.2-C-terminal
# Procedure, shortened: as §1
# [10] = target: T4, RSK2(Kin.Dom.1-N-terminal) (Homo sapiens, UniProt P51812)
# T4 construct: gene RPS6KA3; Kin.Dom.1-N-terminal
# Procedure, shortened: as §1
# [11] = target: TAOK1 (Homo sapiens, UniProt Q7L7X3)
# Procedure, shortened: as §1
# [12] = target: CSNK2A2 (Homo sapiens, UniProt P19784)
# Procedure, shortened: as §1
# [13] = target: MAP3K4 (Homo sapiens, UniProt Q9Y6R4)
# Procedure, shortened: as §1
# [14] = target: PIK3CD (Homo sapiens, UniProt O00329)
# Procedure, shortened: as §1
# [15] = target: T5, MEK4 (Homo sapiens, UniProt P45985)
# T5 construct: gene MAP2K4
# Procedure, shortened: as §1
# [16] = target: EPHB4 (Homo sapiens, UniProt P54760)
# Procedure, shortened: as §1
# [17] = target: BRAF(V600E) (Homo sapiens, UniProt P15056, V600E)
# Procedure, shortened: as §1
# [18] = target: MYLK2 (Homo sapiens, UniProt Q9H1R3)
# Procedure, shortened: as §1
# [19] = target: CDK9 (Homo sapiens, UniProt P50750)
# Procedure, shortened: as §1
# [20] = target: CSNK1A1 (Homo sapiens, UniProt P48729)
# Procedure, shortened: as §1
# [21] = target: T6, MEK6 (Homo sapiens, UniProt P52564)
# T6 construct: gene MAP2K6
# Procedure, shortened: as §1
# [22] = target: ERBB2 (Homo sapiens, UniProt P04626)
# Procedure, shortened: as §1
# Chain of CDK9 (P50750 whole entry): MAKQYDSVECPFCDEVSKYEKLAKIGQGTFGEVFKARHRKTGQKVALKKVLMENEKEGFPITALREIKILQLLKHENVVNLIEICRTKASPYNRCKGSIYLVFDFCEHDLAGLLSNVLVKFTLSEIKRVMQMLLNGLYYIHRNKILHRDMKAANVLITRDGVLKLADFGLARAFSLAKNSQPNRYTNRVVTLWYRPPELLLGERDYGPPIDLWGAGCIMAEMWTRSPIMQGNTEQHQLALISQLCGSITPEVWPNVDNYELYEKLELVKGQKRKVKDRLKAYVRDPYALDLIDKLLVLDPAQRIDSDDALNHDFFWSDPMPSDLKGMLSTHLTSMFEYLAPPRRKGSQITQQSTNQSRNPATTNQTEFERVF
# T5 sequence (P45985 whole entry): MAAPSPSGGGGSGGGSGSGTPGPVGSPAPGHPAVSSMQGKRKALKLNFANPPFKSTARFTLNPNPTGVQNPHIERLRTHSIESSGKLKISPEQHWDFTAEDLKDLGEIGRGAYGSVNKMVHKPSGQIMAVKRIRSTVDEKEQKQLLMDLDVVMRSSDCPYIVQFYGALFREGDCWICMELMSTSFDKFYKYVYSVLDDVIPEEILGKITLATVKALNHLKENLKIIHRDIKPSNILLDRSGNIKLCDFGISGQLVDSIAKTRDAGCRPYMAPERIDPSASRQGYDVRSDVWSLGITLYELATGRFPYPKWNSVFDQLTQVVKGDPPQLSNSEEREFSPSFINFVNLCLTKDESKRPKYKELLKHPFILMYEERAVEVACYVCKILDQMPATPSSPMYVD
# Chain of MAP3K2 (Q9Y2U5 whole entry): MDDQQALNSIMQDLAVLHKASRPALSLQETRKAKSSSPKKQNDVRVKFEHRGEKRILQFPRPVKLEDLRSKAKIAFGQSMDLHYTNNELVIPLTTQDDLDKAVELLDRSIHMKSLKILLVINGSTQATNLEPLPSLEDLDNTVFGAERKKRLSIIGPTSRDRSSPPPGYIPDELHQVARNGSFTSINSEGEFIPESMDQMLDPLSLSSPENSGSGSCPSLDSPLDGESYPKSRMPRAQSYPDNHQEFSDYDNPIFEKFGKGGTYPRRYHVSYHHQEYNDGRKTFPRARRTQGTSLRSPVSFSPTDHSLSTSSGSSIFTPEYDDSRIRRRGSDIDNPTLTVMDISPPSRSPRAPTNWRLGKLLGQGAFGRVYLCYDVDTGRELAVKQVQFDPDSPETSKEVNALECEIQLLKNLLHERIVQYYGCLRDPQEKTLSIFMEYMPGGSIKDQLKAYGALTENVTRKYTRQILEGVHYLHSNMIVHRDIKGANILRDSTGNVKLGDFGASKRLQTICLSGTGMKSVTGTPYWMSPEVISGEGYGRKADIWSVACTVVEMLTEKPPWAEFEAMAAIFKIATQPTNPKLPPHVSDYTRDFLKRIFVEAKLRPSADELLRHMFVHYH
# Chain of RIPK2 (O43353 whole entry): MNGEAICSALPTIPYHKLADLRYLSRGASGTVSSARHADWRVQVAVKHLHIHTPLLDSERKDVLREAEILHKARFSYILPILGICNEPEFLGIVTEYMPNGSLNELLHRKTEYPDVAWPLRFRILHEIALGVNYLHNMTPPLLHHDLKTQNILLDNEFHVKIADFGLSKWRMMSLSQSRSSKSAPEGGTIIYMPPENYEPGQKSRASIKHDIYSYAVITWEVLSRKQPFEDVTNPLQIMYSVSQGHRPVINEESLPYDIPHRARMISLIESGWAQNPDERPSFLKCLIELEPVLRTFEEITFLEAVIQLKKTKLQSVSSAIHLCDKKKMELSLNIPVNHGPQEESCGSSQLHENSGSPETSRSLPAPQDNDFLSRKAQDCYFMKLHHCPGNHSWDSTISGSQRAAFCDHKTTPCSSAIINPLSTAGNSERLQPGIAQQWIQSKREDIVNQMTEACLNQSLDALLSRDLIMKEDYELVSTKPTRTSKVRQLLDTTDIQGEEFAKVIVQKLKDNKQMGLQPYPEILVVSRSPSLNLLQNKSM
# Chain of CSNK1A1 (P48729 whole entry): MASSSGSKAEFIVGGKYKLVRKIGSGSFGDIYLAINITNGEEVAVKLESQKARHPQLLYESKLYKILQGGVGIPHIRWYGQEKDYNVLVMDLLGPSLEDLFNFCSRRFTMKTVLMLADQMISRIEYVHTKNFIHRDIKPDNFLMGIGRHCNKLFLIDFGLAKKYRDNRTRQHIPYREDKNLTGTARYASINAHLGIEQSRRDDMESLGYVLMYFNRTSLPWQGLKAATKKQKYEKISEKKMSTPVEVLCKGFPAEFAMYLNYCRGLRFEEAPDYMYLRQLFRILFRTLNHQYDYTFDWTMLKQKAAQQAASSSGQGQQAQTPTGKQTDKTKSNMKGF
# Chain of ERBB2 (P04626 whole entry): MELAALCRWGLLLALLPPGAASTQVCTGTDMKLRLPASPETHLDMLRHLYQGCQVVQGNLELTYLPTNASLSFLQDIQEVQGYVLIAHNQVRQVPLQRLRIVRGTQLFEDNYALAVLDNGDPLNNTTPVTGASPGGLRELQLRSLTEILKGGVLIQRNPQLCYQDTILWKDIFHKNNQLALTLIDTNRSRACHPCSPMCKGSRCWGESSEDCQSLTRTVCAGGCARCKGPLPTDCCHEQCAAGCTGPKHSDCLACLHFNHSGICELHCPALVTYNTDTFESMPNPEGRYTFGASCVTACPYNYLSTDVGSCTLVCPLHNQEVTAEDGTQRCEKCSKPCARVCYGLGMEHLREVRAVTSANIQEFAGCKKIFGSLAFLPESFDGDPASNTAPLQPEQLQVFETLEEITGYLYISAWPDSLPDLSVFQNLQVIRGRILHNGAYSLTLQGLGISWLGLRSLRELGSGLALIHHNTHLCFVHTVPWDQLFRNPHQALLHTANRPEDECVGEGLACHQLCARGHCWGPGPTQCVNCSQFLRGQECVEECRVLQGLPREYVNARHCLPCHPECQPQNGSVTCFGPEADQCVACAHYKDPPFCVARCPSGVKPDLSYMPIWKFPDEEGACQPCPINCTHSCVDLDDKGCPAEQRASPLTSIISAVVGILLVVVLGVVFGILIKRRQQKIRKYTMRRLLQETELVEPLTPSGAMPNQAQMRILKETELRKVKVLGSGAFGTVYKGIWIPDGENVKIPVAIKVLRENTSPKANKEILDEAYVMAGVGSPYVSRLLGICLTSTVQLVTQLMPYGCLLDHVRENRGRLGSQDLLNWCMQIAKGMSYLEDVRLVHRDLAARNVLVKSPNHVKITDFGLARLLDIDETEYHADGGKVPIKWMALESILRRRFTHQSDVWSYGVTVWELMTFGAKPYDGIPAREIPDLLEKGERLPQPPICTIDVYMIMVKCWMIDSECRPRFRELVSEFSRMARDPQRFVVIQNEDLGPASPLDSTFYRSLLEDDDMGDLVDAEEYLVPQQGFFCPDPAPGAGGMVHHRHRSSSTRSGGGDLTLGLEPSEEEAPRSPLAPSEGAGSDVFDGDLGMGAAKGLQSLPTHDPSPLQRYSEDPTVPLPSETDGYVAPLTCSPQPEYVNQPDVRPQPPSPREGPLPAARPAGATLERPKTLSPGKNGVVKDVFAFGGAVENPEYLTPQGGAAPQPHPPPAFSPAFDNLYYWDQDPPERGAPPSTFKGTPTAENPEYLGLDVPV
# T3 sequence (O75582 whole entry): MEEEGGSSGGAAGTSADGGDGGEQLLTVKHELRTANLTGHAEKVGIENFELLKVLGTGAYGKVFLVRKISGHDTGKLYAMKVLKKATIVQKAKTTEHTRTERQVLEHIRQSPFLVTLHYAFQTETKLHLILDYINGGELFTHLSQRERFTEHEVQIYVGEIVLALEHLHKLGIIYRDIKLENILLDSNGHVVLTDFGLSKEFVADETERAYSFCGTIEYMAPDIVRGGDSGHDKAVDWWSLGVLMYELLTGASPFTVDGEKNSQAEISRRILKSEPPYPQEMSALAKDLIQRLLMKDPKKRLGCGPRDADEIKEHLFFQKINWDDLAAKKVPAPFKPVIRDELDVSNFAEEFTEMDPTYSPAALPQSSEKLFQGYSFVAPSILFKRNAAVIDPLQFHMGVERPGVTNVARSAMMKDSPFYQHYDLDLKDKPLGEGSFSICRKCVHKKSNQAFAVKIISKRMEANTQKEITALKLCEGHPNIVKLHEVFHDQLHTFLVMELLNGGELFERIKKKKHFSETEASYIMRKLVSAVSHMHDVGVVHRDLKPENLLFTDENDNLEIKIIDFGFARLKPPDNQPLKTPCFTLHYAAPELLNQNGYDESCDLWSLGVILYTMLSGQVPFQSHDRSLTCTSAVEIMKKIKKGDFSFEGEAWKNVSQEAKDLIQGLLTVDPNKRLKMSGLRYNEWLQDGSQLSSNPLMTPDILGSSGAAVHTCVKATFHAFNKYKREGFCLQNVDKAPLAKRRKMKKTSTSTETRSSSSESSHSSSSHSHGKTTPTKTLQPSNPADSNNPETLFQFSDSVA
# T6 sequence (P52564 whole entry): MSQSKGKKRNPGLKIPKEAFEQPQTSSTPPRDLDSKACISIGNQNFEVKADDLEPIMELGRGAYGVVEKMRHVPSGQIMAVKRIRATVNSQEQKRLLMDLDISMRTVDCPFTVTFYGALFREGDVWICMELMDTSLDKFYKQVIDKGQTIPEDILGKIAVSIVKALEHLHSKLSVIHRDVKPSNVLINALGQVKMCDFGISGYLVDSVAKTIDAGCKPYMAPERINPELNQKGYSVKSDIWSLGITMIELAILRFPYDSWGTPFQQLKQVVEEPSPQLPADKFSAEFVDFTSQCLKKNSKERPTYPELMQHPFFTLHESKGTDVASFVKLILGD
# Chain of CSNK2A2 (P19784 whole entry): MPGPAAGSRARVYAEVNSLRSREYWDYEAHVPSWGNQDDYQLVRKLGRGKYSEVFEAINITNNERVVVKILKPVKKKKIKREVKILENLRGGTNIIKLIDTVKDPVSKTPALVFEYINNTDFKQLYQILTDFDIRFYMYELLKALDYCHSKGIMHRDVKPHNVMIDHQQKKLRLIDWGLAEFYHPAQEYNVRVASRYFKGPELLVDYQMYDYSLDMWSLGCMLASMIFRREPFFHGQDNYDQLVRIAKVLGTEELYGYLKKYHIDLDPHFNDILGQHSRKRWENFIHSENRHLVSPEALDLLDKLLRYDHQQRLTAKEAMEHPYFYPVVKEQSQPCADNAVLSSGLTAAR
structure (smiles),measurement,setting,value
"Cc1ncccc1Oc1sc(C(N)=O)c2c1-c1c(cnn1C)CC2 [T-474, 1-methyl-8-((2-methylpyridin-3-yl)oxy)-4,5-dihydro-1H-thieno[3,4-g]indazole-6-carboxamide]",remaining binding at 0.3 µM,[1],100%
same,remaining binding at 0.3 µM,[2],100%
same,remaining binding at 0.3 µM,[3],79%
same,remaining binding at 0.3 µM,[4],100%
same,remaining binding at 0.3 µM,[5],82%
same,remaining binding at 0.3 µM,[6],100%
same,remaining binding at 0.3 µM,[7],69%
same,remaining binding at 0.3 µM,[8],76%
same,remaining binding at 0.3 µM,[9],100%
same,remaining binding at 0.3 µM,[10],100%
same,remaining binding at 0.3 µM,[11],95%
same,remaining binding at 0.3 µM,[12],100%
same,remaining binding at 0.3 µM,[13],72%
same,remaining binding at 0.3 µM,[14],88%
same,remaining binding at 0.3 µM,[15],100%
same,remaining binding at 0.3 µM,[16],100%
same,remaining binding at 0.3 µM,[17],100%
same,remaining binding at 0.3 µM,[18],92%
same,remaining binding at 0.3 µM,[19],80%
same,remaining binding at 0.3 µM,[20],98%
same,remaining binding at 0.3 µM,[21],92%
same,remaining binding at 0.3 µM,[22],47%
"O=C(/C=C/c1cnccc1-c1ccc(F)cc1)Nc1ccc(CCc2nnco2)cc1 [T-418, (2E)-3-(4-(4-fluorophenyl)pyridin-3-yl)-N-(4-(2-(1,3,4-oxadiazol-2-yl)ethyl)phenyl)acrylamide]",remaining binding at 0.3 µM,[1]; sheet T-418,100%
same,remaining binding at 0.3 µM,[2]; sheet T-418,100%
same,remaining binding at 0.3 µM,[3]; sheet T-418,74%
same,remaining binding at 0.3 µM,[4]; sheet T-418,100%
same,remaining binding at 0.3 µM,[5]; sheet T-418,100%
same,remaining binding at 0.3 µM,[6]; sheet T-418,100%
same,remaining binding at 0.3 µM,[7]; sheet T-418,52%
same,remaining binding at 0.3 µM,[8]; sheet T-418,89%
same,remaining binding at 0.3 µM,[9]; sheet T-418,100%
same,remaining binding at 0.3 µM,[10]; sheet T-418,100%
same,remaining binding at 0.3 µM,[11]; sheet T-418,100%
same,remaining binding at 0.3 µM,[12]; sheet T-418,100%
same,remaining binding at 0.3 µM,[13]; sheet T-418,68%
same,remaining binding at 0.3 µM,[14]; sheet T-418,99%
same,remaining binding at 0.3 µM,[15]; sheet T-418,100%
same,remaining binding at 0.3 µM,[16]; sheet T-418,96%
same,remaining binding at 0.3 µM,[17]; sheet T-418,100%
same,remaining binding at 0.3 µM,[18]; sheet T-418,62%
same,remaining binding at 0.3 µM,[19]; sheet T-418,83%
same,remaining binding at 0.3 µM,[20]; sheet T-418,100%
same,remaining binding at 0.3 µM,[21]; sheet T-418,99%
same,remaining binding at 0.3 µM,[22]; sheet T-418,52%
